Results reported in patent US20120135923A1, “Use of Melanocortins to Treat Dyslipidemia” (IPSEN PHARMA, S.A.S., priority 2009, published 2012).
Where two headings read alike, the source gives them in different places. Bridge positions count the residues as written; N and C are the ends. Square brackets hold non-standard residues; d marks the D form. Peptide text beside a SMILES is read from it. d2Nal = N[C@H](Cc1ccc2ccccc2c1)C(=O)O; Bta = N[C@@H](Cc1csc2ccccc12)C(=O)O; βAla = NCCC(=O)O

Legend:
[1] = target: T1, hMC5-R (Homo sapiens, UniProt P33032); experiment: cyclic AMP bioassay (ECL) in CHO-K1 cells; format: cell-based
T1 construct: expressed in transfected cells; host or cells: CHO-K1
T1 sequence (P33032 whole entry): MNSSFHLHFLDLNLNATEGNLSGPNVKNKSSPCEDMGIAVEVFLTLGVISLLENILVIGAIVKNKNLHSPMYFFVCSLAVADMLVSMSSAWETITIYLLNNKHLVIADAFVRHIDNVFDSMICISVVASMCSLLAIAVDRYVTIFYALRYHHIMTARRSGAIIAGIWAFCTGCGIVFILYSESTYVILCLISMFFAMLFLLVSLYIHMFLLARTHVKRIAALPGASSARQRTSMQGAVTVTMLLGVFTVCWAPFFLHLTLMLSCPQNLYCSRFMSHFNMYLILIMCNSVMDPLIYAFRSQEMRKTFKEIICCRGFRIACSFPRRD
Protocol: (§1) Intracellular cyclic AMP (cAMP) levels were determined by an electrochemiluminescence (ECL) assay (Meso Scale Discovery®, Gaithersburg, Md.; referred to hereinafter as MSD). […] Transgenic CHO-K1 cells stably expressing hMC receptor subtypes 1, 3, 4 or 5 were dispensed at a density of approximately 7,000 cells/well in 384-well Multi-Array®plates (MSD) containing integrated carbon electrodes and coated with anti-cAMP antibody. Increasing concentrations of the test compounds were added and the cells were incubated for approximately 40 minutes at approximately 37° C. […] At the end of the second incubation period read buffer (Tris-buffered solution containing an ECL co-reactant and Triton X-100 at ph 7.8) was added and the cAMP levels in the cell lysates were immediately determined by ECL detection with a Sector Imager 6000 Reader® (MSD). Data were analyzed using a computer-assisted non-linear regression analysis (XL fit; IDBS) and reported as either an EC50 value or a Kb value.
(§2) The Kb value reflects the potency of an antagonist and is determined by Schild analysis. In brief, concentration-response curves of an agonist are carried out in the presence of increasing concentrations of an antagonist. […] It is calculated by extrapolating the line on a Schild plot to zero on the y-axis.

[2] = target: T2, hMC1-R (Homo sapiens, UniProt Q01726); experiment: cyclic AMP bioassay (ECL) in CHO-K1 cells; format: cell-based
T2 construct: expressed in transfected cells; host or cells: CHO-K1
T2 sequence (Q01726 whole entry): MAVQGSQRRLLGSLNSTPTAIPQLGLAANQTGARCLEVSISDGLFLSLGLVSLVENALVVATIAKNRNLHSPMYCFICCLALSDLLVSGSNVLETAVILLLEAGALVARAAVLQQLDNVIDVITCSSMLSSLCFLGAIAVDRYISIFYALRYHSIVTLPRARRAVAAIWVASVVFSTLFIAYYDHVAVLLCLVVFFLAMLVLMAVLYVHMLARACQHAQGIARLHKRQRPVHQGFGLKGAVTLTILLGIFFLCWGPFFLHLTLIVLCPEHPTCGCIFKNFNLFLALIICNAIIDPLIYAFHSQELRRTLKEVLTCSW
Protocol: as §1, §2

[3] = target: T1, hMC5-R; experiment: Radioligand binding assay, [125I]-NDP-α-MSH competition, CHO-K1 membranes
Protocol: Cellular membranes used for the in vitro receptor binding assays were obtained from transgenic CHO-K1 cells stably expressing hMC-R receptor subtypes 1, 3, 4 or 5. […] The pellets were resuspended in the same buffer and centrifuged at 50,000 g for 10 minutes at approximately 4° C. The washed pellets containing the cellular membranes were stored at approximately −80° C.
Cell membranes (1-10 μg protein/well) prepared as described above were incubated in 50 mM Tris-HCl at pH 7.4 containing 0.2% bovine serum albumin (BSA), 5 mM MgCl2, 1 mM CaCl2 and 0.1 mg/mL bacitracin, with increasing concentrations of the test compound and 0.1-0.3 nM [^25I]-NDP-α-MSH for approximately 90-120 minutes at approximately 37° C. […] Filters were washed three times with 50 mM Tris-HCl at pH 7.4 at a temperature of approximately 0-4° C. and then assayed for radioactivity using a Packard Topcount® scintillation counter. Binding data were analyzed by computer-assisted non-linear regression analysis (XL fit; IDBS).

[4] = target: T3, hMC3-R (Homo sapiens, UniProt P41968); experiment: cyclic AMP bioassay (ECL) in CHO-K1 cells; format: cell-based; details: for Kb: antagonist potency by Schild analysis, cAMP, CHO-K1 cells expressing hMC3-R, read-out: Kb hMC3-R
T3 construct: expressed in transfected cells; host or cells: CHO-K1
T3 sequence (P41968 whole entry): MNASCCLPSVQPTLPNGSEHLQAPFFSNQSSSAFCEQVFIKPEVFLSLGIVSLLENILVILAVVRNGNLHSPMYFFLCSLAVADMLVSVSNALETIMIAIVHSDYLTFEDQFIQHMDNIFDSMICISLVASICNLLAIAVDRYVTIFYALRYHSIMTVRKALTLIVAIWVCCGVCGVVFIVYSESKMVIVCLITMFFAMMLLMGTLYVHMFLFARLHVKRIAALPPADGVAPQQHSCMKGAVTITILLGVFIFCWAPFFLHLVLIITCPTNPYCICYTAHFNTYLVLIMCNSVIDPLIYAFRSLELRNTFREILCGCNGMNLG
Protocol: as §1, §2

[5] = target: T4, hMC4-R (Homo sapiens, UniProt P32245); experiment: cyclic AMP bioassay (ECL) in CHO-K1 cells; format: cell-based; details: for Kb: antagonist potency by Schild analysis, cAMP, CHO-K1 cells expressing hMC4-R, read-out: Kb hMC4-R
T4 construct: expressed in transfected cells; host or cells: CHO-K1
T4 sequence (P32245 whole entry): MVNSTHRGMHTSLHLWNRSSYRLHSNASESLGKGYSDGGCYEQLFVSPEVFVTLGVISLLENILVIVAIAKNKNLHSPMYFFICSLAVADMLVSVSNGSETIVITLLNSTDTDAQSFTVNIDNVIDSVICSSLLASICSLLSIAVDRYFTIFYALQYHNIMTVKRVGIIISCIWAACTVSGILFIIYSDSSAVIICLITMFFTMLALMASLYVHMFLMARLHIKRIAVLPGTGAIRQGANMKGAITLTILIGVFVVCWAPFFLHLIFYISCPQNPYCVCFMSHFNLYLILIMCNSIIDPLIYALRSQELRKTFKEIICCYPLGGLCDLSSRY

[6] = cAMP, CHO-K1 cells expressing hMC5-R, read-out: EC50 hMC5-R
[7] = cAMP, CHO-K1 cells expressing hMC1-R, read-out: EC50 hMC1-R

Row | Compound | EC50 [1, 6] [nM] | EC50 [2, 7] [nM] | Ki ([3]; Table 6, read-out: Ki hMC5-R) [nM] | Kb [4] [nM] | Kb [5] [nM] | EC50 [1] [nM] | Ki ([3]; Table 5, read-out: Ki hMC5-R) [nM] | also measured
1 | CC(=O)N[C@H]1CSSC[C@@H](C(=O)N2CCC[C@H]2C(=O)N2CCC[C@H]2C(=O)N[C@@H](CCCCN)C(=O)N[C@@H](CC(=O)O)C(=O)NCCC(=O)NCC(=O)N[C@@H](CCCNC(=N)N)C(=O)N[C@@H](CCCNC(=N)N)C(=O)N[C@@H](CCCNC(=N)N)C(=O)N[C@@H](CCCNC(=N)N)C(=O)N[C@@H](CCCNC(=N)N)C(=O)N[C@@H](CCC(N)=O)C(=O)N[C@@H](CCCNC(=N)N)C(=O)N[C@@H](CCCNC(=N)N)C(=O)N[C@@H](CCCNC(=N)N)C(N)=O)NC(=O)[C@H](C)NC(=O)[C@H](Cc2csc3ccccc23)NC(=O)[C@H](CCCNC(=N)N)NC(=O)[C@@H](Cc2ccc3ccccc3c2)NC(=O)[C@H](Cc2c[nH]cn2)NC(=O)[C@H](CCC(=O)O)NC1=O (Ac-CEH[d2Nal]R[Bta]ACPPKD[βAla]GRRRRRQRRR-NH2; disulfide 1-8) | 1400 | 146 | 165 | 104 | 32 |  |  | 
2 | C[C@H]1NC(=O)[C@@H](NC(=O)CN2C(=O)CNC2=O)CSSC[C@@H](C(N)=O)NC(=O)[C@H](Cc2c[nH]c3ccccc23)NC(=O)[C@H](CCCNC(=N)N)NC(=O)[C@@H](Cc2ccccc2)NC(=O)[C@H](Cc2cnc[nH]2)NC1=O [Hydantoin(C(O)-(Gly-Gly))-c(Cys-D-Ala-His-D-Phe-Arg-Trp-Cys)-NH2] |  |  |  |  |  | 201 |  | EC50 [2]: 14.2 nM; Ki ([3]; Ki hMC5, Table 7): 50 nM; EC50 [4]: 2.46 nM; EC50 [5]: 0.336 nM
3 | CC(=O)N[C@H](CCCNC(=N)N)C(=O)N[C@H]1CSSC[C@@H](C(N)=O)NC(=O)[C@H](Cc2c[nH]c3ccccc23)NC(=O)[C@H](CCCNC(=N)N)NC(=O)[C@@H](Cc2ccccc2)NC(=O)[C@H](Cc2c[nH]cn2)NC(=O)[C@@H](C)NC1=O [Ac-D-Arg-c(Cys-D-Ala-His-D-Phe-Arg-Trp-Cys)-NH2] |  |  |  |  |  | 1020 |  | Ki ([3]; Ki hMC5-R, Table 5): 352 nM
4 | CC(=O)N[C@H]1CSSC[C@@H](C(N)=O)NC(=O)[C@H](C)NC(=O)[C@H](Cc2c[nH]c3ccccc23)NC(=O)[C@H](CCCNC(=N)N)NC(=O)[C@@H](Cc2ccccc2)NC(=O)[C@H](Cc2c[nH]cn2)NC(=O)[C@@H](C)NC1=O [Ac-c(Cys-D-Ala-His-D-Phe-Arg-Trp-Ala-Cys)-NH2] (Ac-C[dA]H[dF]RWAC-NH2; disulfide 1-8 (inferred)) |  |  |  |  |  |  | > 10000 | 
5 | CC(=O)N[C@H]1CSSC[C@@H](C(=O)N2CCC[C@H]2C(=O)N2CCC[C@H]2C(=O)N[C@@H](CCCCN)C(=O)N[C@@H](CC(=O)O)C(=O)NCCC(=O)N[C@@H](Cc2ccc(O)cc2)C(=O)NCC(=O)N[C@@H](CCCNC(=N)N)C(=O)N[C@@H](CCCCN)C(=O)N[C@@H](CCCCN)C(=O)N[C@@H](CCCNC(=N)N)C(=O)N[C@@H](CCCNC(=N)N)C(=O)N[C@@H](CCC(N)=O)C(=O)N[C@@H](CCCNC(=N)N)C(=O)N[C@@H](CCCNC(=N)N)C(=O)N[C@@H](CCCNC(=N)N)C(N)=O)NC(=O)[C@H](C)NC(=O)[C@H](Cc2csc3ccccc23)NC(=O)[C@H](CCCNC(=N)N)NC(=O)[C@@H](Cc2ccc3ccccc3c2)NC(=O)[C@H](Cc2c[nH]cn2)NC(=O)[C@H](CCC(=O)O)NC1=O | 1800 | 37.9 | 15.3 | 112 | 41.1 |  |  | 
6 | CC(=O)N[C@@H](CCCNC(=N)N)C(=O)N[C@H]1CC(=O)NCCCC[C@@H](C(N)=O)NC(=O)[C@H](C)NC(=O)[C@H](Cc2c[nH]c3ccccc23)NC(=O)[C@H](CCCNC(=N)N)NC(=O)[C@@H](Cc2ccccc2)NC(=O)[C@H](Cc2c[nH]cn2)NC1=O [Ac-Arg-c(Asp-His-D-Phe-Arg-Trp-Ala-Lys)-NH2] |  |  |  |  |  |  | 783 | EC50 ([1]; Table 9A/9B, read-out: EC50 hMC5-R): 467 nM; EC50 ([2]; Table 9A/9B, read-out: EC50 hMC1-R): 1.39 nM; EC50 ([4]; Table 9A/9B, read-out: EC50 hMC3-R): 2.89 nM; EC50 ([5]; Table 9A/9B, read-out: EC50 hMC4-R): 0.055 nM
